From patent US9708368B2, “Linear peptide antibiotics” (priority 2012, dated 2017)
In brackets after ≈: the same amount, converted by molar mass. Read-outs that look alike come from different tables or passages of the source. Square brackets hold non-standard residues; d marks the D form. Peptide text beside a SMILES is read from it. * marks the point of attachment. ξ: configuration not given here. boroAla((+)-pinanediol) = C[C@H](N*)B1O[C@@H]2C[C@@H]3C[C@@H](C3(C)C)[C@]2(C)O1; Biphenylcarbonyl(4'-Bu) = CCCCc1ccc(-c2ccc(C(=O)*)cc2)cc1; X1 = C[C@H](N*)B1OC2C[C@@H]3C[C@@H](C3(C)C)[C@]2(C)O1; X5 = C[C@H](N*)B1OC2C3CCC(C3(C)C)C2(C)O1; X15 = CCCCCCN1CCC(c2ccc(C(=O)*)cc2)CC1; X19 = O=C(CCCCC12CC3CC(CC(C3)C1)C2)*; NMeThr(3ξ) = CN[C@H](C(=O)O)C(C)O; Myristoyl = CCCCCCCCCCCCCC(=O)*; NMeE = CN[C@@H](CCC(=O)O)C(=O)O; Thr(3ξ) = CC(O)[C@H](N)C(=O)O; Decanoyl = CCCCCCCCCC(=O)*; boroAla = C[C@H](N*)B(O)O; Orn = NCCC[C@H](N)C(=O)O; Dab = NCC[C@H](N)C(=O)O; boroGly = OB(O)CN*; βAla = NCCC(=O)O; ξA = CC(N)C(=O)O

Legend:
[1] = target: E. coli SPase (Escherichia coli, UniProt P00803); assay: Biochemical SPase activity assay (fluorogenic peptide substrate), E. coli enzyme
Sequence of E. coli SPase (P00803 whole entry): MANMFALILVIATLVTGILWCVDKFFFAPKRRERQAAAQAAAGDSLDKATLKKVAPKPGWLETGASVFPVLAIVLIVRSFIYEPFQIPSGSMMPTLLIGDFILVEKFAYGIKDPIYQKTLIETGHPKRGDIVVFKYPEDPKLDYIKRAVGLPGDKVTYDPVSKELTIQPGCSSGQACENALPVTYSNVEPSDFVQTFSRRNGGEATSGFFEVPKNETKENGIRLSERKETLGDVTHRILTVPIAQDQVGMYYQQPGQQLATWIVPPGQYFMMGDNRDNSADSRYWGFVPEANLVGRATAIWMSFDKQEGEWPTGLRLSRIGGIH

[2] = tested on: Methicillin Resistant Staphylococcus aureus strain USA 300 (NRS384)
Description: (§1) In vitro antimicrobial activity of each compound was determined by measuring minimal inhibitor concentrations (MICs) using the broth micro-dilution technique as approved by the Clinical and Laboratory Standards Institute (CLSI). […] Cells were inoculated onto Trypyticase Soy Agar or Luria Agar containing 16 ng/ml of anhydrotetracycline respectively and grown at 35° C. for 20 hours. Inocula suspensions were made by scraping cells into 1 mL of testing media (cation adjusted Mueller Hinton Broth supplemented with 0.002% v/v Tween-80) and diluting to a final OD600 nm of 0.01.
(§2) Test compounds were prepared in DMSO at a concentration of 10 mg/ml. […] Inocula suspensions were added to the two fold serial dilutions of test compounds to a final density of OD OD600 nm of 0.0005 and incubated stationary at 35° C. for 22 hours, after which the plates were examined visually.

[3] = target: S. aureus SPase (Staphylococcus aureus, UniProt P0A070); assay: biochemical
Sequence of S. aureus SPase (P0A070 whole entry): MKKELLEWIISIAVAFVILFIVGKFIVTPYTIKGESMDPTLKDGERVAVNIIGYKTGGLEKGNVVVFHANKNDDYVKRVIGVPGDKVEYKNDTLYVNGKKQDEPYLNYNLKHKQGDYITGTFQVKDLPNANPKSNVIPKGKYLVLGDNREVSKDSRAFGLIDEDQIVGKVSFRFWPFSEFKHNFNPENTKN

[4] = tested on: Escherichia coli MC4100 IMP-4213 in which transcription of the SPase encoding gene is under control of a tetracycline inducible promoter; details: Method A; E. coli MC4100 IMP-4213 with decreased SPase expression; 35° C., 22 hours
Description: as §1, §2

[5] = tested on: methicillin resistant Staphylococcus aureus (MRSA) strain USA300 (NRS384); details: Method B, 35° C., 22 hours
[6] = tested on: Escherichia coli strain MC4100 IMP-4213, which harbors an LptD mutation; details: Method B; E. coli MC4100 IMP-4213 (LptD mutation); 35° C., 22 hours
Outline: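 Two-fold serial dilutions of compound inoculated at final OD600 0.0005, incubated static at 35 °C for 22 h, and growth read visually.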

[7] = Method A, MRSA USA 300 (NRS384), 35° C., 22 hours

Row | Structure (SMILES) | IC50 [1] | MIC (μg/mL) S. aureus [2, 7] | IC50 [3] | MIC (μg/mL) E. coli [4] | MIC (μg/mL) S. aureus ([2]; USA 300, 22 h) | MIC (μg/mL) S. aureus [5] | MIC (μg/mL) E. coli [6]
1 | CCCCCCCCCCCCCC(=O)N[C@@H](CC(C)C)C(=O)N[C@H](C(=O)N1CCC[C@@H]1C(=O)N[C@H](C(=O)N[C@@H](C)C(=O)N[C@@H](CC(N)=O)C(=O)NCC=O)C(C)O)C(C)O (stereo partly drawn) [Compound 103] (Myristoyl-L[Thr(3ξ)][dP][Thr(3ξ)]ANG-aldehyde) | 11000 nM | >64 µg/mL | 110 nM | – | – | – | –
2 | CCCCCCCCCCCCCC(=O)N[C@H](CO)C(=O)N[C@H](C)C(=O)NCC(=O)N(C)[C@H](C(=O)N[C@@H](C)C(=O)N[C@@H](CC(C)C)C(=O)N[C@@H](C)B1OC2C3CCC(C3(C)C)C2(C)O1)C(C)O (stereo partly drawn) [Compound 123] (Myristoyl-[dS][dA]G[NMeThr(3ξ)]AL-X5) | 220 nM | 64 µg/mL (≈ 67.5 µM) | 42 nM | 25 µg/mL (≈ 26.4 µM) | – | – | –
3 | CCCCCCCCCCCCCC(=O)N[C@@H](CC(C)C)C(=O)N[C@H](C(=O)N1CCC[C@@H]1C(=O)N[C@H](C(=O)N[C@@H](C)C(=O)N[C@@H](Cc1ccc(O)cc1)C(=O)NC(C)C(=O)C(=O)NC)C(C)O)C(C)O (mixture of isomers) [Compound 112] | 31000 nM | >64 µg/mL | 3400 nM | >64 µg/mL | – | – | –
4 | CCCCCCCCCCCCCC(=O)N[C@@H](CC(C)C)C(=O)N[C@H](C(=O)N1CCC[C@@H]1C(=O)N[C@H](C(=O)N[C@@H](C)C(=O)N[C@@H](CC(N)=O)C(=O)NC(C)C=O)C(C)O)C(C)O (stereo partly drawn) [Compound 108] (Myristoyl-L[Thr(3ξ)][dP][Thr(3ξ)]AN[ξA]-aldehyde) | 20000 nM | 64 µg/mL (≈ 72.6 µM) | 2100 nM | >64 µg/mL | – | – | –
5 | CCCCc1ccc(-c2ccc(C(=O)N[C@H](CO)C(=O)N[C@H](C)C(=O)NCC(=O)N(C)[C@@H](CCC(=O)O)C(=O)N[C@@H](C)C(=O)N[C@@H](CC(N)=O)C(=O)NCB(O)O)cc2)cc1 [Compound 119] ({Biphenylcarbonyl(4'-Bu)}-[dS][dA]G[NMeE]AN-boroGly) | 290 nM | >64 µg/mL | 59 nM | >64 µg/mL | – | – | –
6 | CCCCCCCCCC(=O)N[C@@H](CC(C)C)C(=O)N[C@H](C(=O)N1CCC[C@@H]1C(=O)N[C@H](C(=O)N[C@@H](C)C(=O)N[C@@H](Cc1ccc(O)cc1)C(=O)NCB(O)O)C(C)O)C(C)O (stereo partly drawn) [Compound 128] (Decanoyl-L[Thr(3ξ)][dP][Thr(3ξ)]AY-boroGly) | 3000 nM | >64 µg/mL | 670 nM | >64 µg/mL | – | – | –
7 | CCCCCCCCCC(=O)N[C@@H](CC(C)C)C(=O)N[C@H](C(=O)N1CCC[C@@H]1C(=O)N[C@H](C(=O)N[C@@H](C)C(=O)N[C@@H](Cc1ccc(O)cc1)C(=O)NC(C)C(=O)C(=O)NC)C(C)O)C(C)O (mixture of isomers) [Compound 111] | 4900 nM | >64 µg/mL | 18000 nM | >64 µg/mL | – | – | –
8 | CCCCCCCCCCCCCC(=O)N[C@H](CO)C(=O)N[C@H](C)C(=O)NCC(=O)N(C)[C@H](C(=O)N[C@@H](C)C(=O)N[C@@H](CC(C)C)C(=O)NC(C)C(=O)C(=O)NC)C(C)O (mixture of isomers) [Compound 110] | – | – | 150 nM | >64 µg/mL | >64 µg/mL | – | –
9 | CCCCCCCCCC(=O)N[C@@H](CC(C)C)C(=O)N[C@H](C(=O)N1CCC[C@@H]1C(=O)N[C@H](C(=O)N[C@@H](C)C(=O)N[C@@H](Cc1ccc(O)cc1)C(=O)NC(C)C=O)C(C)O)C(C)O (stereo partly drawn) [Compound 109] (Decanoyl-L[Thr(3ξ)][dP][Thr(3ξ)]AY[ξA]-aldehyde) | – | >64 µg/mL | 4900 nM | >64 µg/mL | – | – | –
10 | CCCCCCCCCCCCCC(=O)N[C@@H](CC(C)C)C(=O)N[C@H](C(=O)N1CCC[C@@H]1C(=O)N[C@H](C(=O)N[C@@H](C)C(=O)N[C@@H](Cc1ccc(O)cc1)C(=O)NCC=O)C(C)O)C(C)O (stereo partly drawn) [Compound 105] (Myristoyl-L[Thr(3ξ)][dP][Thr(3ξ)]AYG-aldehyde) | – | >64 µg/mL | – | >64 µg/mL | – | – | –
11 | CCCCCCCCCCCCCC(=O)N[C@H](CO)C(=O)N[C@H](C)C(=O)NCC(=O)N(C)[C@H](C(=O)N[C@@H](C)C(=O)N[C@@H](CC(C)C)C(=O)NCC=O)C(C)O (stereo partly drawn) [Compound 104] (Myristoyl-[dS][dA]G[NMeThr(3ξ)]ALG-aldehyde) | 8900 nM | 8 µg/mL (≈ 10.2 µM) | 18 nM | – | – | – | –
12 | CCCCc1ccc(-c2ccc(C(=O)NCCC(=O)N[C@@H](CCCCN)C(=O)N[C@H](C(=O)N[C@@H](C)C(=O)N[C@@H](CC(N)=O)C(=O)N[C@@H](C)B3OC4C[C@@H]5C[C@@H](C5(C)C)[C@]4(C)O3)C(C)O)cc2)cc1 (stereo partly drawn) [Compound 121] ({Biphenylcarbonyl(4'-Bu)-βAla}-K[Thr(3ξ)]AN-X1) | – | 0.25 µg/mL (≈ 0.265 µM) | – | 0.5 µg/mL (≈ 0.529 µM) | – | – | –
13 | C[C@H](NC(=O)[C@H](CCCCN)NC(=O)[C@H](C)NC(=O)[C@@H](NC(=O)[C@H](CCN)NC(=O)CCCCC12CC3CC(CC(C3)C1)C2)[C@@H](C)O)B1OC2C[C@@H]3C[C@@H](C3(C)C)[C@]2(C)O1 (stereo partly drawn) [Compound 239] (X19-[Dab]TAK-X1) | 17 nM | – | 670 nM | – | – | 0.71 µg/mL (≈ 0.843 µM) | 2 µg/mL (≈ 2.38 µM)
14 | CCCCc1ccc(-c2ccc(C(=O)N[C@@H](CCCCN)C(=O)N3CCC[C@H]3C(=O)N[C@@H](C)C(=O)N[C@@H](CC(N)=O)C(=O)N[C@@H](C)B(O)O)cc2)cc1 [Compound 158] ({Biphenylcarbonyl(4'-Bu)}-KPAN-boroAla) | 33 nM | – | 400 nM | – | – | 5.7 µg/mL (≈ 7.75 µM) | 5 µg/mL (≈ 6.8 µM)
15 | CCCCc1ccc(-c2ccc(OC(=O)N[C@@H](CCCCN)C(=O)N[C@H](C(=O)N[C@@H](C)C(=O)N[C@@H](CC(N)=O)C(=O)N[C@@H](C)B3OC4C[C@@H]5C[C@@H](C5(C)C)[C@]4(C)O3)[C@@H](C)O)cc2)cc1 (stereo partly drawn) [Compound 262] | 37 nM | – | 15 nM | – | – | 2.8 µg/mL (≈ 3.15 µM) | 8 µg/mL (≈ 8.99 µM)
16 | CCCCc1ccc(-c2ccc(C(=O)N[C@@H](CCCCN)C(=O)N[C@H](C(=O)N[C@@H](C)C(=O)N[C@@H](CC(N)=O)C(=O)N[C@@H](C)B(O)O)[C@@H](C)O)cc2)cc1 [Compound 131] ({Biphenylcarbonyl(4'-Bu)}-KTAN-boroAla) | 19 nM | – | 98 nM | – | – | 0.45 µg/mL (≈ 0.608 µM) | 0.44 µg/mL (≈ 0.595 µM)
17 | CCCCc1ccc(-c2ccc(C(=O)NCCC(=O)N[C@@H](CCCCN)C(=O)N[C@H](C(=O)N[C@@H](C)C(=O)N[C@@H](Cc3c[nH]cn3)C(=O)N[C@@H](C)B3OC4C[C@@H]5C[C@@H](C5(C)C)[C@]4(C)O3)[C@@H](C)O)cc2)cc1 (stereo partly drawn) [Compound 196] ({Biphenylcarbonyl(4'-Bu)-βAla}-KTAH-X1) | 8.8 nM | – | 5.7 nM | – | – | 0.66 µg/mL (≈ 0.682 µM) | 2.5 µg/mL (≈ 2.58 µM)
18 | CCCCc1ccc(-c2ccc(C(=O)N[C@@H](CCCN)C(=O)N[C@H](C(=O)N[C@@H](C)C(=O)N[C@@H](CCCCN)C(=O)N[C@@H](C)B3OC4C[C@@H]5C[C@@H](C5(C)C)[C@]4(C)O3)[C@@H](C)O)cc2)cc1 (stereo partly drawn) [Compound 142] ({Biphenylcarbonyl(4'-Bu)}-[Orn]TAK-X1) | 15 nM | – | 34 nM | – | – | 0.22 µg/mL (≈ 0.252 µM) | 0.5 µg/mL (≈ 0.572 µM)
19 | CCCCc1ccc(-c2ccc(C(=O)N[C@@H](CO)C(=O)N[C@H](C(=O)N[C@@H](C)C(=O)N[C@@H](CCCCN)C(=O)N[C@@H](C)B(O)O)[C@@H](C)O)cc2)cc1 [Compound 164] ({Biphenylcarbonyl(4'-Bu)}-STAK-boroAla) | 44 nM | – | 120 nM | – | – | 1.4 µg/mL (≈ 1.96 µM) | 1 µg/mL (≈ 1.4 µM)
20 | CCCCCCN1CCC(c2ccc(C(=O)N[C@@H](CCN)C(=O)N[C@H](C(=O)N[C@@H](C)C(=O)N[C@@H](CCCCN)C(=O)N[C@@H](C)B3O[C@@H]4C[C@@H]5C[C@@H](C5(C)C)[C@]4(C)O3)[C@@H](C)O)cc2)CC1 [Compound 246] (X15-[Dab]TAK-{boroAla((+)-pinanediol)}) | 55 nM | – | 290 nM | – | – | 23 µg/mL (≈ 25.7 µM) | 64 µg/mL (≈ 71.5 µM)
